Assay: refractive index (other wavelength) (dimensionless); xn = mol fraction of the nth substance listed
Settings: 101 kPa, Liquid, Standard Abbe refractometry

CC(C)OC(C)C [diisopropyl ether] + CC(C)O
refractive index
Settings	Wavelength=404.7 nm	Wavelength=435.8 nm	Wavelength=486.1 nm	Wavelength=546.1 nm	Wavelength=587.6 nm	Wavelength=589.3 nm	Wavelength=632.8 nm	Wavelength=644 nm	Wavelength=706.5 nm
308.15 K, x1 = 0.0277	1.38135	1.37835	1.37495	1.37214	1.37065	1.37059	1.36929	1.36899	1.36755
308.15 K, x1 = 0.0507	1.3813	1.3783	1.37488	1.37207	1.37059	1.37053	1.36924	1.36894	1.36748
308.15 K, x1 = 0.051	1.38124	1.37824	1.37483	1.37202	1.37053	1.37047	1.36917	1.36887	1.36742
308.15 K, x1 = 0.0717	1.38092	1.37792	1.37451	1.3717	1.37072	1.37014	1.36886	1.36856	1.36711
308.15 K, x1 = 0.1528	1.38023	1.37724	1.37384	1.371	1.36953	1.36947	1.3682	1.3679	1.36646
308.15 K, x1 = 0.1553	1.38023	1.37724	1.37384	1.371	1.36953	1.36947	1.3682	1.3679	1.36646
308.15 K, x1 = 0.1938	1.37994	1.37695	1.37356	1.37072	1.36925	1.36919	1.36792	1.36761	1.36617
308.15 K, x1 = 0.2029	1.3793	1.37665	1.37311	1.37028	1.3688	1.36875	1.36748	1.36718	1.36573
308.15 K, x1 = 0.245	1.37901	1.37603	1.37266	1.36984	1.36837	1.36832	1.36706	1.36676	1.36532
308.15 K, x1 = 0.297	1.37832	1.37533	1.37193	1.36911	1.36764	1.36759	1.36631	1.36601	1.36457
308.15 K, x1 = 0.2973	1.37852	1.37554	1.37215	1.36932	1.36785	1.3678	1.36653	1.36623	1.3648
308.15 K, x1 = 0.3068	1.37823	1.37525	1.3718	1.36857	1.36754	1.36751	1.36624	1.36594	1.36451
308.15 K, x1 = 0.398	1.37692	1.37394	1.37056	1.36775	1.36628	1.36623	1.36496	1.36466	1.36323
308.15 K, x1 = 0.4609	1.37625	1.37325	1.36987	1.36707	1.3656	1.36554	1.36427	1.36397	1.36254
308.15 K, x1 = 0.5434	1.37535	1.37238	1.36896	1.3662	1.36473	1.36467	1.36338	1.36309	1.36168
308.15 K, x1 = 0.6032	1.37466	1.3717	1.3683	1.3655	1.36404	1.36398	1.36271	1.36241	1.361
308.15 K, x1 = 0.6371	1.37427	1.37131	1.36792	1.36515	1.36369	1.36363	1.36235	1.36205	1.36064
308.15 K, x1 = 0.701	1.37352	1.37059	1.36722	1.36441	1.36297	1.36292	1.36166	1.36135	1.35993
308.15 K, x1 = 0.754	1.37312	1.37017	1.36681	1.36401	1.36256	1.36251	1.36125	1.36096	1.35954
308.15 K, x1 = 0.791	1.37271	1.36974	1.36638	1.36358	1.36215	1.36209	1.36085	1.36054	1.35911
308.15 K, x1 = 0.8296	1.37234	1.36938	1.36604	1.36323	1.36178	1.36173	1.36048	1.36018	1.35877
308.15 K, x1 = 0.8864	1.37212	1.36915	1.3658	1.363	1.36156	1.36151	1.36026	1.35996	1.35855
308.15 K, x1 = 0.8903	1.37167	1.36871	1.36535	1.36256	1.36111	1.36106	1.35981	1.35952	1.3581
308.15 K, x1 = 0.9113	1.37142	1.36847	1.36511	1.36232	1.36088	1.36082	1.35957	1.35928	1.35786
308.15 K, x1 = 0.9547	1.37095	1.36796	1.36465	1.36187	1.36041	1.36036	1.3591	1.3588	1.35741
308.15 K, x1 = 0.973	1.37062	1.36766	1.36431	1.36152	1.36008	1.36002	1.35877	1.35847	1.35707
308.15 K, x1 = 0.9771	1.37048	1.36752	1.36417	1.36139	1.35994	1.35989	1.35864	1.35835	1.35694
308.15 K, x1 = 1	1.37035	1.36739	1.36407	1.36127	1.35975	1.35983	1.35853	1.35823	1.35683
313.15 K, x1 = 0.0277	1.37904	1.37606	1.37269	1.36987	1.3684	–	–	–	–
313.15 K, x1 = 0.0507	1.37898	1.376	1.37262	1.3698	1.36833	–	–	–	–
313.15 K, x1 = 0.051	1.37891	1.37594	1.37256	1.36974	1.36828	–	–	–	–
313.15 K, x1 = 0.0717	1.37855	1.37558	1.37221	1.36939	1.36792	–	–	–	–
313.15 K, x1 = 0.1528	1.37787	1.3749	1.3715	1.36872	1.36724	–	–	–	–
313.15 K, x1 = 0.1553	1.37787	1.3749	1.3715	1.36872	1.36724	–	–	–	–
313.15 K, x1 = 0.1938	1.37761	1.37465	1.37126	1.36846	1.36699	–	–	–	–
313.15 K, x1 = 0.2029	1.37706	1.37411	1.37068	1.36791	1.36645	–	–	–	–
313.15 K, x1 = 0.245	1.37653	1.37358	1.37022	1.36743	1.36596	–	–	–	–
313.15 K, x1 = 0.297	1.37571	1.37276	1.36938	1.36658	1.36512	–	–	–	–
313.15 K, x1 = 0.2973	1.37596	1.37298	1.36959	1.36682	1.36535	–	–	–	–
313.15 K, x1 = 0.3068	1.37567	1.37271	1.36934	1.36655	1.36509	–	–	–	–
313.15 K, x1 = 0.398	1.37428	1.37134	1.36798	1.3652	1.36376	–	–	–	–
313.15 K, x1 = 0.4609	1.37355	1.3706	1.36724	1.36445	1.36302	–	–	–	–
313.15 K, x1 = 0.5434	1.37263	1.36967	1.36633	1.36354	–	–	–	–	–
313.15 K, x1 = 0.6032	1.37187	1.36891	1.36561	1.36281	–	–	–	–	–
313.15 K, x1 = 0.6371	1.37152	1.36856	1.36522	1.36243	–	–	–	–	–
313.15 K, x1 = 0.701	1.37074	1.36779	1.36447	1.36168	–	–	–	–	–
313.15 K, x1 = 0.754	1.3703	1.36737	1.36403	1.36126	–	–	–	–	–
313.15 K, x1 = 0.791	1.36988	1.36694	1.36363	1.36084	–	–	–	–	–
313.15 K, x1 = 0.8296	1.36948	1.36655	1.36322	1.36045	–	–	–	–	–
313.15 K, x1 = 0.8864	1.36937	1.36643	1.36308	1.36035	–	–	–	–	–
313.15 K, x1 = 0.8903	1.3688	1.36585	1.36252	1.35976	–	–	–	–	–
313.15 K, x1 = 0.9113	1.36853	1.3656	1.36228	1.35952	–	–	–	–	–
313.15 K, x1 = 0.9547	1.36805	1.36513	1.3618	1.35904	–	–	–	–	–
313.15 K, x1 = 0.973	1.36771	1.36481	1.36145	1.35868	–	–	–	–	–
313.15 K, x1 = 0.9771	1.36756	1.36465	1.36134	1.35856	–	–	–	–	–
313.15 K, x1 = 1	1.3674	1.36447	1.36119	1.35842	–	–	–	–	–
